Measured values as given in ChEMBL document CHEMBL1201862, “PubChem BioAssay data set” (2004).
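Cells were grown in 96-well plates and exposed to each compound for 48 hours at five concentrations; endpoints were interpolated linearly between bracketing concentrations, or set to the highest concentration if not reached. GI50 = concentration required for 50% inhibition of growth.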 The source made the active and inactive calls. Cut-off read from the data, not from the text of the source: active = GI50 up to about 1.1 µM and inactive = higher.

Assays:
Experiment in all cases: inhibition of tumour cell growth, NCI panel, 48 h
786-0 = test system: 786-0
A498 = test system: A498
A549 = test system: A549
ACHN = test system: ACHN
BT-549 = test system: BT-549
CAKI-1 = test system: CAKI-1
CCRF-CEM = test system: CCRF-CEM
COLO 205 = test system: COLO 205
DU-145 = test system: DU-145
EKVX = test system: EKVX
HCC 2998 = test system: HCC 2998
HCT-116 = test system: HCT-116
HCT-15 = test system: HCT-15
HL-60 = test system: HL-60
HOP-62 = test system: HOP-62
HT-29 = test system: HT-29
Hs-578T = test system: Hs-578T
IGROV-1 = test system: IGROV-1
K562 = test system: K562
KM12 = test system: KM12
LOX IMVI = test system: LOX IMVI
M14 = test system: M14
MCF7 = test system: MCF7
MDA-MB-231 = test system: MDA-MB-231
MDA-MB-435 = test system: MDA-MB-435
MDA-N = test system: MDA-N
MOLT-4 = test system: MOLT-4
Malme-3M = test system: Malme-3M
NCI-H23 = test system: NCI-H23
NCI-H460 = test system: NCI-H460
NCI-H522 = test system: NCI-H522
NCI/ADR-RES = test system: NCI/ADR-RES
OVCAR-3 = test system: OVCAR-3
OVCAR-4 = test system: OVCAR-4
OVCAR-5 = test system: OVCAR-5
OVCAR-8 = test system: OVCAR-8
PC-3 = test system: PC-3
RPMI-8226 = test system: RPMI-8226
RXF 393 = test system: RXF 393
SF-268 = test system: SF-268
SF-295 = test system: SF-295
SF-539 = test system: SF-539
SK-MEL-28 = test system: SK-MEL-28
SK-MEL-2 = test system: SK-MEL-2
SK-MEL-5 = test system: SK-MEL-5
SK-OV-3 = test system: SK-OV-3
SN12C = test system: SN12C
SNB-19 = test system: SNB-19
SNB-75 = test system: SNB-75
SR = test system: SR
SW-620 = test system: SW-620
T47D = test system: T47D
TK-10 = test system: TK-10
U-251 = test system: U-251
UACC-257 = test system: UACC-257
UACC-62 = test system: UACC-62
UO-31 = test system: UO-31
HOP-92 = test system: HOP-92
NCI-H226 = test system: NCI-H226

O=c1cc(CNC2CC3CCC2C3)[nH]c(=O)[nH]1 (stereo unspecified)
GI50 (786-0): > 100 µM (inactive)
GI50 (A498): > 100 µM (inactive)
GI50 (A549): > 100 µM (inactive)
GI50 (ACHN): > 100 µM (inactive)
GI50 (BT-549): > 100 µM (inactive)
GI50 (CAKI-1): > 100 µM (inactive)
GI50 (CCRF-CEM): > 100 µM (inactive)
GI50 (COLO 205): > 100 µM (inactive)
GI50 (DU-145): > 100 µM (inactive)
GI50 (EKVX): > 100 µM (inactive)
GI50 (HCC 2998): > 100 µM (inactive)
GI50 (HCT-116): > 100 µM (inactive)
GI50 (HCT-15): > 100 µM
GI50 (HL-60): > 100 µM (inactive)
GI50 (HOP-62): > 100 µM (inactive)
GI50 (HT-29): > 100 µM (inactive)
GI50 (Hs-578T): > 100 µM (inactive)
GI50 (IGROV-1): > 100 µM (inactive)
GI50 (K562): > 100 µM (inactive)
GI50 (KM12): > 100 µM (inactive)
GI50 (LOX IMVI): > 100 µM (inactive)
GI50 (M14): > 100 µM (inactive)
GI50 (MCF7): > 100 µM (inactive)
GI50 (MDA-MB-231): > 100 µM (inactive)
GI50 (MDA-MB-435): > 100 µM (inactive)
GI50 (MDA-N): > 100 µM (inactive)
GI50 (MOLT-4): > 100 µM (inactive)
GI50 (Malme-3M): > 100 µM (inactive)
GI50 (NCI-H23): > 100 µM (inactive)
GI50 (NCI-H460): > 100 µM (inactive)
GI50 (NCI-H522): > 100 µM (inactive)
GI50 (NCI/ADR-RES): > 100 µM (inactive)
GI50 (OVCAR-3): > 100 µM (inactive)
GI50 (OVCAR-4): > 100 µM (inactive)
GI50 (OVCAR-5): > 100 µM (inactive)
GI50 (OVCAR-8): > 100 µM (inactive)
GI50 (PC-3): > 100 µM (inactive)
GI50 (RPMI-8226): > 100 µM (inactive)
GI50 (RXF 393): > 100 µM (inactive)
GI50 (SF-268): > 100 µM (inactive)
GI50 (SF-295): > 100 µM (inactive)
GI50 (SF-539): > 100 µM (inactive)
GI50 (SK-MEL-28): > 100 µM (inactive)
GI50 (SK-MEL-2): > 100 µM (inactive)
GI50 (SK-MEL-5): > 100 µM (inactive)
GI50 (SK-OV-3): > 100 µM (inactive)
GI50 (SN12C): > 100 µM (inactive)
GI50 (SNB-19): > 100 µM (inactive)
GI50 (SNB-75): > 100 µM (inactive)
GI50 (SR): > 100 µM (inactive)
GI50 (SW-620): > 100 µM (inactive)
GI50 (T47D): > 100 µM (inactive)
GI50 (TK-10): > 100 µM (inactive)
GI50 (U-251): > 100 µM (inactive)
GI50 (UACC-257): > 100 µM (inactive)
GI50 (UACC-62): > 100 µM (inactive)
GI50 (UO-31): > 100 µM (inactive)

Cc1ccc(/C=N/Nc2ccc3ccccc3n2)s1
GI50 (786-0): 18.8 µM (inactive)
GI50 (A549): 14.3 µM (inactive)
GI50 (ACHN): 17.3 µM (inactive)
GI50 (BT-549): 18.2 µM (inactive)
GI50 (CAKI-1): > 100 µM (inactive)
GI50 (CCRF-CEM): > 100 µM (inactive)
GI50 (COLO 205): 12.9 µM (inactive)
GI50 (DU-145): > 10 µM (inactive)
GI50 (EKVX): 4.73 µM (inactive)
GI50 (HCC 2998): 15.3 µM (inactive)
GI50 (HCT-116): 7.78 µM (inactive)
GI50 (HCT-15): 12 µM
GI50 (HL-60): 41.5 µM (inactive)
GI50 (HOP-62): 20.8 µM (inactive)
GI50 (HOP-92): 19.1 µM (inactive)
GI50 (HT-29): 7.46 µM (inactive)
GI50 (Hs-578T): 25.2 µM (inactive)
GI50 (IGROV-1): 16.3 µM (inactive)
GI50 (K562): 16.9 µM (inactive)
GI50 (KM12): 32.3 µM (inactive)
GI50 (LOX IMVI): 17.1 µM (inactive)
GI50 (M14): 16.9 µM (inactive)
GI50 (MCF7): 17.5 µM (inactive)
GI50 (MDA-MB-231): 15.5 µM (inactive)
GI50 (MDA-MB-435): 15.8 µM (inactive)
GI50 (MDA-N): 13.4 µM (inactive)
GI50 (MOLT-4): 9.55 µM (inactive)
GI50 (Malme-3M): 14.9 µM (inactive)
GI50 (NCI-H226): 80.7 µM (inactive)
GI50 (NCI-H23): 18.6 µM (inactive)
GI50 (NCI-H522): 15.7 µM (inactive)
GI50 (NCI/ADR-RES): 35.5 µM (inactive)
GI50 (OVCAR-3): 5.58 µM (inactive)
GI50 (OVCAR-4): 20.7 µM (inactive)
GI50 (OVCAR-5): 27.3 µM (inactive)
GI50 (OVCAR-8): 26.7 µM (inactive)
GI50 (PC-3): 13.2 µM (inactive)
GI50 (RPMI-8226): 14.2 µM (inactive)
GI50 (RXF 393): 37.7 µM (inactive)
GI50 (SF-268): 60.1 µM (inactive)
GI50 (SF-295): 16.4 µM (inactive)
GI50 (SF-539): 83.4 µM (inactive)
GI50 (SK-MEL-28): 17.2 µM (inactive)
GI50 (SK-MEL-2): > 100 µM (inactive)
GI50 (SK-MEL-5): 9.4 µM (inactive)
GI50 (SK-OV-3): 30.2 µM (inactive)
GI50 (SN12C): 13 µM (inactive)
GI50 (SNB-19): 21.3 µM (inactive)
GI50 (SNB-75): > 100 µM (inactive)
GI50 (SR): 22.2 µM (inactive)
GI50 (SW-620): 23.2 µM (inactive)
GI50 (T47D): 8.28 µM (inactive)
GI50 (TK-10): 22.1 µM (inactive)
GI50 (U-251): 21.1 µM (inactive)
GI50 (UACC-257): 6.01 µM (inactive)
GI50 (UACC-62): 34.8 µM (inactive)
GI50 (UO-31): > 100 µM (inactive)

CC(=O)C(C(=O)C(C)(C)C)C(=O)C(C)(C)C
GI50 (786-0): > 100 µM (inactive)
GI50 (A549): > 100 µM (inactive)
GI50 (ACHN): > 100 µM (inactive)
GI50 (BT-549): > 100 µM (inactive)
GI50 (CAKI-1): > 100 µM (inactive)
GI50 (CCRF-CEM): > 100 µM (inactive)
GI50 (COLO 205): > 100 µM (inactive)
GI50 (DU-145): > 100 µM (inactive)
GI50 (HCC 2998): > 100 µM (inactive)
GI50 (HCT-116): > 100 µM (inactive)
GI50 (HCT-15): > 100 µM
GI50 (HL-60): > 100 µM (inactive)
GI50 (HOP-62): > 100 µM (inactive)
GI50 (HOP-92): > 100 µM (inactive)
GI50 (Hs-578T): > 100 µM (inactive)
GI50 (K562): > 100 µM (inactive)
GI50 (KM12): > 100 µM (inactive)
GI50 (LOX IMVI): > 100 µM (inactive)
GI50 (M14): > 100 µM (inactive)
GI50 (MCF7): > 100 µM (inactive)
GI50 (MDA-MB-231): > 100 µM (inactive)
GI50 (MDA-MB-435): > 100 µM (inactive)
GI50 (MDA-N): > 100 µM (inactive)
GI50 (MOLT-4): > 100 µM (inactive)
GI50 (Malme-3M): > 100 µM (inactive)
GI50 (NCI-H460): > 100 µM (inactive)
GI50 (NCI-H522): > 100 µM (inactive)
GI50 (NCI/ADR-RES): > 100 µM (inactive)
GI50 (OVCAR-4): > 100 µM (inactive)
GI50 (OVCAR-5): > 100 µM (inactive)
GI50 (OVCAR-8): > 100 µM (inactive)
GI50 (PC-3): > 100 µM (inactive)
GI50 (RPMI-8226): > 100 µM (inactive)
GI50 (RXF 393): > 100 µM (inactive)
GI50 (SF-268): > 100 µM (inactive)
GI50 (SF-295): > 100 µM (inactive)
GI50 (SF-539): > 100 µM (inactive)
GI50 (SK-MEL-28): > 100 µM (inactive)
GI50 (SK-MEL-2): > 100 µM (inactive)
GI50 (SK-MEL-5): > 100 µM (inactive)
GI50 (SK-OV-3): > 100 µM (inactive)
GI50 (SN12C): > 100 µM (inactive)
GI50 (SNB-19): > 100 µM (inactive)
GI50 (SNB-75): 59.4 µM (inactive)
GI50 (SR): > 100 µM (inactive)
GI50 (SW-620): > 100 µM (inactive)
GI50 (T47D): > 100 µM (inactive)
GI50 (TK-10): > 100 µM (inactive)
GI50 (U-251): > 100 µM (inactive)
GI50 (UACC-257): > 100 µM (inactive)
GI50 (UACC-62): > 100 µM (inactive)
GI50 (UO-31): > 100 µM (inactive)
